Test results as given in patent publication US9988644B2, “Compounds for improved viral transduction” (bluebird bio, Inc., priority 2011, dated 2018).

System: CD34+ cells
Assay: Time-course and dose-response of dmPGE2 in promoting viral transduction (GFP+ lentivirus, flow cytometry)
Format: cell-based, human
Details: GFP+ lentivirus MOI 25; for percentage of cells positive for GFP, Pre-Stim w/PGE2 Minus 2 Hr: 22-24 hours of culture; for percentage of cells positive for GFP, Pre-Stim w/PGE2 Minus 1 Hr: 23-24 hours of culture; for percentage of cells positive for GFP, Virus and PGE2 Plus 1 Hr: 24-25 hours of culture; for percentage of cells positive for GFP, Virus and PGE2 Plus 2 Hr: 24-26 hours of culture; for percentage of cells positive for GFP, Virus and PGE2 Plus 4 Hr: 24-28 hours of culture; for percentage of cells positive for GFP, Virus and PGE2 24 Hr: 24-48 hours of culture
Protocol: MCD-34+ cells were thawed and pre-stimulated with SCF, TPO, FltL and IL3, then transduced with GFP+ lentivirus at a multiplicity of infection of 25. Cells were exposed to dmPGE2 during the viral transduction step (24-25 hours of culture; 24-26 hours of culture; 24-28 hours of culture; or 24-48 hours of culture) and then washed and analyzed by flow cytometry after approximately 1 week in culture. Alternatively, cells were exposed to dmPGE2 during the pre-stimulation step (22-24 hours of culture; 23-24 hours of culture).

[1] = dmPGE2 1 uM during pre-stimulation
[2] = dmPGE2 12.5 uM during pre-stimulation
[3] = dmPGE2 25 uM during pre-stimulation
[4] = dmPGE2 50 uM during pre-stimulation
[5] = dmPGE2 100 uM during pre-stimulation

CCCCC(C)(C)[C@H](O)/C=C/[C@H]1[C@H](O)CC(=O)[C@@H]1C/C=C\CCCC(=O)O [dmPGE2, 16,16-dimethyl PGE2]
percentage of cells positive for GFP, Pre-Stim w/PGE2 Minus 2 Hr [1]: 25.74% | percentage of cells positive for GFP, Pre-Stim w/PGE2 Minus 1 Hr [1]: 22.29% | percentage of cells positive for GFP, Virus and PGE2 Plus 1 Hr (dmPGE2 1 uM): 2.94% | percentage of cells positive for GFP, Virus and PGE2 Plus 2 Hr (dmPGE2 1 uM): 7.17% | percentage of cells positive for GFP, Virus and PGE2 Plus 4 Hr (dmPGE2 1 uM): 21.10% | percentage of cells positive for GFP, Virus and PGE2 24 Hr (dmPGE2 1 uM): 32.03% | percentage of cells positive for GFP, Pre-Stim w/PGE2 Minus 2 Hr [2]: 30.64% | percentage of cells positive for GFP, Pre-Stim w/PGE2 Minus 1 Hr [2]: 22.13% | percentage of cells positive for GFP, Virus and PGE2 Plus 1 Hr (dmPGE2 12.5 uM): 1.97% | percentage of cells positive for GFP, Virus and PGE2 Plus 2 Hr (dmPGE2 12.5 uM): 5.32% | percentage of cells positive for GFP, Virus and PGE2 Plus 4 Hr (dmPGE2 12.5 uM): 28.08% | percentage of cells positive for GFP, Virus and PGE2 24 Hr (dmPGE2 12.5 uM): 47.42% | percentage of cells positive for GFP, Pre-Stim w/PGE2 Minus 2 Hr [3]: 31.90% | percentage of cells positive for GFP, Pre-Stim w/PGE2 Minus 1 Hr [3]: 24.05% | percentage of cells positive for GFP, Virus and PGE2 Plus 1 Hr (dmPGE2 25 uM): 1.76% | percentage of cells positive for GFP, Virus and PGE2 Plus 2 Hr (dmPGE2 25 uM): 4.76% | percentage of cells positive for GFP, Virus and PGE2 Plus 4 Hr (dmPGE2 25 uM): 27.46% | percentage of cells positive for GFP, Virus and PGE2 24 Hr (dmPGE2 25 uM): 50.69% | percentage of cells positive for GFP, Pre-Stim w/PGE2 Minus 2 Hr [4]: 31.85% | percentage of cells positive for GFP, Pre-Stim w/PGE2 Minus 1 Hr [4]: 22.98% | percentage of cells positive for GFP, Virus and PGE2 Plus 1 Hr (dmPGE2 50 uM): 1.85% | percentage of cells positive for GFP, Virus and PGE2 Plus 2 Hr (dmPGE2 50 uM): 4.23% | percentage of cells positive for GFP, Virus and PGE2 Plus 4 Hr (dmPGE2 50 uM): 27.45% | percentage of cells positive for GFP, Virus and PGE2 24 Hr (dmPGE2 50 uM): 54.63% | percentage of cells positive for GFP, Pre-Stim w/PGE2 Minus 2 Hr [5]: 34.85% | percentage of cells positive for GFP, Pre-Stim w/PGE2 Minus 1 Hr [5]: 25.14% | percentage of cells positive for GFP, Virus and PGE2 Plus 1 Hr (dmPGE2 100 uM): 2.48% | percentage of cells positive for GFP, Virus and PGE2 Plus 2 Hr (dmPGE2 100 uM): 4.02% | percentage of cells positive for GFP, Virus and PGE2 Plus 4 Hr (dmPGE2 100 uM): 21.57% | percentage of cells positive for GFP, Virus and PGE2 24 Hr (dmPGE2 100 uM): 76.44%
